Experimental data taken from patent US6150351A, “Cephem compounds and pharmaceutical use thereof” (Fujisawa Pharmaceutical Co., Ltd., priority 1996, dated 2000).
Blank lines part the entries; values can stand above or below the molecule they belong to.

What was measured:
in vivo = assay: in vivo; design: species or system male rats; settings: rat, po
Description: The test compound suspended in 0.5% methylcellulose was orally administered to male rats at a dose of 100 or 32 mg/kg/day for 2 weeks.

H. pylori FP 1757 [1] = assay: In vitro anti-microbial activity against Helicobacter pylori (two-fold agar plate dilution method); format: cell-based; settings: FP1757, 72 h, test strain H. pylori FP 1757, Brucella agar with 7% horse blood, 37° C., 3 days, 10% CO2
H. pylori FP 1757 [2] = assay: Therapeutic effects in mouse model (H. pylori infection, eradication); format: in vivo, male ICR mice; settings: 0.32 mg/kg/time, oral, twice per day for 4 days; mice sacrificed 2 weeks after final administration
Description: 1.5 ml of approx. 10^8 cfu/ml of H. pylori FP 1757 was orally infected into 4 weeks old male ICR mice (Nippon SLC, Hamamatsu, Japan) which had been fasted overnight. […] The test compound was suspended in 0.5% methylcellulose and administered to the mice. The mice were sacrificed at 2 weeks after the final administration and the gastric mucosa was scraped and homogenized in 1 ml of 0.1 M phosphate buffered saline. 0.1 ml aliquots were inoculated onto Brucella agar plate containing 3% horse serum, 2% starch and antibiotics. All plates were incubated at 37° C. under 10% CO2 for 4 or 5 days. Colonies grown on the plate were counted, and the therapeutic effect was evaluated.

Compound: NC(=O)Cc1csc(SC2=C(C(=O)O)N3C(=O)[C@@H](NC(=O)Cc4ccccc4)[C@H]3SC2)n1 [Example 14, 7β-(2-Phenylacetamido)-3-(4-carbamoylmethylthiazol-2-yl)thio-3-cephem-4-carboxylic acid]
NOAEL at 336 h (in vivo): 100 mg/kg/day

MIC (H. pylori FP 1757 [1]): < 0.02 µg/mL
Compound: NCc1nnc(SC2=C(C(=O)O)N3C(=O)[C@@H](NC(=O)Cc4ccccc4)[C@H]3SC2)s1.O=C(O)C(F)(F)F [Example 24, 7β-(2-phenylacetamido)-3-(5-aminomethyl-1,3,4-thiadiazol-2-yl)thio-3-cephem-4-carboxylic acid trifluoroacetic acid salt]

Compound: O=C(O)Cc1csc(SC2=C(C(=O)O)N3C(=O)[C@@H](NC(=O)Cc4cccs4)[C@H]3SC2)n1 [Example 72, 7β-[2-(2-Thienyl)acetamido]-3-(4-carboxymethylthiazol-2-yl)thio-3-cephem-4-carboxylic acid]
eradication (H. pylori FP 1757 [2]): > 80%
